Data as given in PubChem BioAssay AID192 (DTP/NCI, 2004).
Values joined by “and” are separate entries in the source; they are usually repeats but may differ in a detail not shown here. Equal entries are not always repeated. Inconclusive results and toxic doses are left out. How the source made its calls: active means survival T/C of 150% or more; inactive means T/C below 125% in these data.

Test system: BDF1 mice, B16 melanoma ip, median survival T/C
Assay: NCI In Vivo Anticancer Drug Screen. Data for tumor model B16 Melanoma (intraperitoneal) in B6D2F1 (BDF1) mice
Details: endpoint: median survival time, higher = longer survival
Method in brief: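 Antitumor activity is assessed in mice bearing a transplanted tumor, with survival or tumor size compared against vehicle-dosed controls and expressed as T/C.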

[1] = dose: 1.56 mg/kg/injection, schedule: Q01DX009 (ip), vehicle: saline
[2] = dose: 3.12 mg/kg/injection, schedule: Q01DX009 (ip), vehicle: saline
[3] = dose: 12.5 mg/kg/injection, schedule: Q01DX009 (ip), vehicle: saline
[4] = dose: 25.0 mg/kg/injection, schedule: Q01DX009 (ip), vehicle: saline
[5] = dose: 25.0 mg/kg/injection, schedule: Q01DX009 (ip), vehicle: Klucel (hydroxypropylcellulose) (HPC)
[6] = dose: 50.0 mg/kg/injection, schedule: Q01DX009 (ip), vehicle: Klucel (hydroxypropylcellulose) (HPC)
[7] = dose: 50.0 mg/kg/injection, schedule: Q01DX009 (ip), vehicle: saline with Tween-80
[8] = dose: 100.0 mg/kg/injection, schedule: Q01DX009 (ip), vehicle: Klucel (hydroxypropylcellulose) (HPC)
[9] = dose: 100.0 mg/kg/injection, schedule: Q01DX009 (ip), vehicle: saline with Tween-80
[10] = dose: 200.0 mg/kg/injection, schedule: Q01DX009 (ip), vehicle: saline with Tween-80
[11] = dose: 200.0 mg/kg/injection, schedule: Q01DX009 (ip), vehicle: Klucel (hydroxypropylcellulose) (HPC)
[12] = dose: 6.25 mg/kg/injection, schedule: Q01DX009 (ip), vehicle: saline with Tween-80
[13] = dose: 6.25 mg/kg/injection, schedule: Q01DX009 (ip), vehicle: saline
[14] = dose: 12.5 mg/kg/injection, schedule: Q01DX009 (ip), vehicle: saline with Tween-80
[15] = dose: 25.0 mg/kg/injection, schedule: Q01DX009 (ip), vehicle: saline with Tween-80
[16] = dose: 400.0 mg/kg/injection, schedule: Q01DX009 (ip), vehicle: Klucel (hydroxypropylcellulose) (HPC)
[17] = dose: 100.0 mg/kg/injection, schedule: Q01DX009 (ip), vehicle: saline
[18] = dose: 200.0 mg/kg/injection, schedule: Q01DX009 (ip), vehicle: saline
[19] = dose: 400.0 mg/kg/injection, schedule: Q01DX009 (ip), vehicle: saline
[20] = dose: 400.0 mg/kg/injection, schedule: Q01DX009 (ip), vehicle: saline with Tween-80

Measured: T/C

ClCCN(CC#CCCCC#CCN(CCCl)CCCl)CCCl
inactive: [1] 111 % of control | [2] 123 % of control
active: [3] 173 % of control | [4] 156 % of control

COc1ccc(CCN2C(=O)CSC2=S)cc1OC
inactive: [5] 100 % of control | [6] 88 % of control | [7] 94 % of control and 98 % of control | [8] 89 % of control and 94 % of control | [9] 104 % of control | dose: 100.0 mg/kg/injection, schedule: Q04DX003 (ip), vehicle: saline with Tween-80 89 % of control | [10] 90 % of control and 94 % of control | dose: 200.0 mg/kg/injection, schedule: Q04DX003 (ip), vehicle: saline with Tween-80 94 % of control

Clc1ccc2c(c1)-c1ccccc1C1=NCCN12
inactive: dose: 5.0 mg/kg/injection, schedule: Q01DX009 (ip), vehicle: saline 108 % of control | dose: 10.0 mg/kg/injection, schedule: Q01DX009 (ip), vehicle: saline 118 % of control

CCC(=O)c1ccc(NC(C)=O)cc1
inactive: dose: 100.0 mg/kg/injection, schedule: Q04DX003 (ip), vehicle: Klucel (hydroxypropylcellulose) (HPC) 102 % of control | dose: 200.0 mg/kg/injection, schedule: Q04DX003 (ip), vehicle: Klucel (hydroxypropylcellulose) (HPC) 96 % of control | dose: 400.0 mg/kg/injection, schedule: Q04DX003 (ip), vehicle: Klucel (hydroxypropylcellulose) (HPC) 98 % of control

S=C(Nc1ccccc1)Nc1ccccc1S
inactive: [8] 95 % of control and 107 % of control | [11] 98 % of control and 111 % of control

CC(C)CNc1ccc(S(=O)(=O)c2ccc(NCC(C)C)c([N+](=O)[O-])c2)cc1[N+](=O)[O-]
inactive: dose: 3.13 mg/kg/injection, schedule: Q01DX009 (ip), vehicle: saline with Tween-80 100 % of control | [12] 93 % of control | [13] 93 % of control | [14] 89 % of control | [4] 88 % of control

O=C(NCCO)Nc1ccc(Cl)c(Cl)c1
inactive: dose: 90.0 mg/kg/injection, schedule: Q01DX009 (ip), vehicle: other 102 % of control | dose: 100.0 mg/kg/injection, schedule: Q01DX009 (ip), vehicle: other 100 % of control | dose: 200.0 mg/kg/injection, schedule: Q01DX009 (ip), vehicle: other 94 % of control | dose: 300.0 mg/kg/injection, schedule: Q01DX009 (ip), vehicle: other 87 % of control | dose: 400.0 mg/kg/injection, schedule: Q01DX009 (ip), vehicle: other 90 % of control

FC(F)(F)c1ccc2c(c1)N(CCCN1CCN(CCOc3ccccc3)CC1)c1ccccc1S2
inactive: dose: 2.0 mg/kg/injection, schedule: Q01DX009 (ip), vehicle: saline 121 % of control

Cc1[nH]ccc2c(C)c3nc4ccc(O)cc4c3cc12
active: dose: 20.0 mg/kg/injection, schedule: Q04DX003 (ip), vehicle: water 153 % of control
inactive: dose: 2.5 mg/kg/injection, schedule: Q04DX003 (ip), vehicle: water 123 % of control | dose: 5.0 mg/kg/injection, schedule: Q04DX003 (ip), vehicle: water 121 % of control | dose: 40.0 mg/kg/injection, schedule: Q04DX003 (ip), vehicle: water 113 % of control

ClC(Cl)=C(Cl)Cl
inactive: [14] 105 % of control | [15] 98 % of control | [6] 101 % of control | [7] 93 % of control | [8] 99 % of control | [9] 92 % of control | [11] 98 % of control | [16] 88 % of control

Cc1cc2c3ccc(C)[n+](C)c3ccc2n1C
inactive: dose: 0.08 mg/kg/injection, schedule: Q01DX009 (ip), vehicle: saline 102 % of control | dose: 0.15 mg/kg/injection, schedule: Q01DX009 (ip), vehicle: saline 92 % of control | dose: 0.3 mg/kg/injection, schedule: Q01DX009 (ip), vehicle: saline 97 % of control | dose: 1.25 mg/kg/injection, schedule: Q01DX009 (ip), vehicle: saline 100 % of control | dose: 2.5 mg/kg/injection, schedule: Q01DX009 (ip), vehicle: saline 94 % of control

CNC(=S)C(=S)NC
inactive: [12] 102 % of control | [14] 120 % of control | [15] 107 % of control

O=C(O)c1cc(-c2ccc(Cl)cc2)nc2c(Cl)cccc12
inactive: [8] 100 % of control

CC1(C(=O)O)CCC2(C)CCC3(C)C(=CC(=O)C4C5(C)CCC(OC6OC(C(=O)O)C(O)C(O)C6OC6OC(C(=O)O)C(O)C(O)C6O)C(C)(C)C5CCC43C)C2C1 (configuration not stated)
inactive: [17] 106 % of control | [18] 101 % of control | [19] 102 % of control

O=C(Nc1ccccc1O)/C(Cl)=C/Cl
inactive: dose: 12.5 mg/kg/injection, schedule: Q01DX009 (ip), vehicle: Klucel (hydroxypropylcellulose) (HPC) 92 % of control | [5] 93 % of control | [6] 90 % of control

FC(F)(F)c1ccc(Cl)c(NC2=NCCCS2)c1
inactive: [6] 96 % of control | [8] 89 % of control

NC(=O)c1cn(C2OC(CO)C(O)C2O)c2ncnc(N)c12 (configuration not stated)
inactive: dose: 0.09 mg/kg/injection, schedule: Q01DX009 (ip), vehicle: saline 100 % of control | dose: 0.12 mg/kg/injection, schedule: Q01DX009 (ip), vehicle: water 93 % of control | dose: 0.13 mg/kg/injection, schedule: Q01DX009 (ip), vehicle: saline 97 % of control | dose: 0.19 mg/kg/injection, schedule: Q01DX009 (ip), vehicle: saline 105 % of control | dose: 0.25 mg/kg/injection, schedule: Q01DX009 (ip), vehicle: saline 102 % of control | dose: 0.25 mg/kg/injection, schedule: Q01DX009 (ip), vehicle: water 106 % of control | dose: 0.38 mg/kg/injection, schedule: Q01DX009 (ip), vehicle: saline 105 % of control | dose: 0.5 mg/kg/injection, schedule: Q01DX009 (ip), vehicle: saline 102 % of control | dose: 0.75 mg/kg/injection, schedule: Q01DX009 (ip), vehicle: saline 114 % of control

O=C(NC(Cc1ccc(O)cc1)C(=O)O)c1ccccc1 (configuration not stated)
inactive: [7] 105 % of control | [9] 100 % of control | [10] 89 % of control | [20] 88 % of control

CN1CCCCC1CCN1c2ccccc2Sc2ccc(Cl)cc21 (configuration not stated)
inactive: [1] 109 % of control | [2] 102 % of control | [13] 100 % of control | [3] 103 % of control | [4] 94 % of control

O=C(Cc1ccc2cc3c(cc2c1)OCO3)NCCc1ccc2c(c1)OCO2
inactive: [8] 105 % of control | [11] 94 % of control | [16] 91 % of control

N=C1SCc2ccc3ccccc3c21
inactive: [7] 99 % of control | [9] 97 % of control | [10] 91 % of control | [20] 89 % of control

COc1cc(/C=C(/C)[N+](=O)[O-])ccc1O
inactive: dose: 50.0 mg/kg/injection, schedule: Q01DX009 (ip), vehicle: carboxymethylcellulose (CMC) 121 % of control | dose: 100.0 mg/kg/injection, schedule: Q01DX009 (ip), vehicle: carboxymethylcellulose (CMC) 102 % of control

CC(=O)Nc1cccc([N+](=O)[O-])c1
inactive: [7] 109 % of control | [9] 97 % of control | [10] 97 % of control

O=C(O)c1ccc(S(=O)(=O)N(Cl)Cl)cc1
inactive: [17] 110 % of control | [18] 113 % of control | [19] 104 % of control

CCCCCCCCCCCCO[P+](=O)OCCCCCCCCCCCC
inactive: [17] 88 % of control

COC1C(OC(=O)c2ccc(C)[nH]2)C(O)C(Oc2ccc3c(O)c(NC(=O)c4ccc(O)c(CC=C(C)C)c4)c(=O)oc3c2Cl)OC1(C)C (configuration not stated)
inactive: dose: 6.25 mg/kg/injection, schedule: Q01DX009 (ip), vehicle: other 101 % of control | dose: 12.5 mg/kg/injection, schedule: Q01DX009 (ip), vehicle: other 97 % of control and 124 % of control | dose: 25.0 mg/kg/injection, schedule: Q01DX009 (ip), vehicle: other 90 % of control and 91 % of control | dose: 50.0 mg/kg/injection, schedule: Q01DX009 (ip), vehicle: other 94 % of control
